Measurements: patent publication US20230323296A1, “STEM CELL-LIKE MEMORY T CELLS AND USES THEREOF” (GEORGETOWN UNIVERSITY, priority 2020, published 2023)

Columns and labels:
[1] = test system: CD4+ T cells in the tumor microenvironment (TME); experiment: In vivo TSCM generation in TC-1 tumor bearing mice (FACS of tumors); conditions: MEKi 10 mg/Kg oral gavage, 15 doses
Description: Mice were treated and tumors were isolated. The frequency of CD4^+ cells in variously treated mice (UT, untreated; Vax; MEKi, MEK1/2 inhibitor only; and Vax +MEKi, both E7 and MEK inhibitor) were determined. Error bars represent mean±SEM. (^NSnon-significant, *p≤0.05, **p≤0.01). For Vax treated mice, The CTL epitope from HPV16 E749-57 (RAHYNIVTF, 100 μg/mouse) was used mixed with PADRE, a small 13-mer non-natural pan HLA DR-binding sequence that is a potent T helper cell epitope (20 μg/mouse-Celtek Bioscience, Franklin, TN), and QuilA (adjuvant, 10 μg/mouse-Brenntag, Westbury, NY). Two doses of the vaccine were administered subcutaneously (s.c.) every seven days starting at an average tumor volume of 0.07-0.08 cm^3. Three days after the second vaccination, mice were sacrificed and expression of various markers was analyzed in cells from the tumors by flow cytometry
The frequency of CD62L^+CD44^− CD4^+ T cells in variously treated mice as described for FIG. 1A were determined. Error bars represent mean±SEM. (^NSnon-significant, *p≤0.05, **p≤0.01).
TC-1 tumor bearing mice were treated with an MEK inhibitor (MEKi) (10 mg/Kg), for a total of 15 doses, given everyday by oral gavage, starting when tumor reached an average size of 0.05 cm^3. […] The single-cell suspended tumors were labelled with appropriately conjugated fluorophore conjugated antibodies and analyzed by FACS.

[2] = test system: CD4 cells from the splenocytes of wild type (WT) mice; experiment: In vitro assay of TSCM induction in activated CD4 cells (FACS); type: cell-based; conditions: TCONV cells activated with IL-2/anti-CD3/anti-CD28, 72 hours, MEKi 1 uM, vs cells activated without MEK1/2 inhibitor; FIG. 2A
Description: T conventional (TCONV) cells (from mouse spleen), defined as CD4^+FoxP3^− cells, were activated (Act) by IL-2 with anti-CD3/anti-CD28 in the presence (+) or absence (−) of MEK1/2 inhibitor for 72 hours, and the number of Sca1^+CD62L^+CD44^−CD4^+ T cells was determined by flow cytometry sorting (FACS).
CD4 cells from the splenocytes of wild type (WT) mice were prepared by magnetic purification using Biolegend cell sorting kits, as per the manufacturer's instructions. Purified cells were activated by plating 1×10^6/ml in cell activation medium that contained rIL-2 (100 IU/ml), anti-CD3 (5 ug/ml), anti-CD28 (2.5 ug/ml) and MEKi (1 uM). Appropriate arms (only cell activation and only IL-2 treatment) were also included for valid comparisons. After 72 hours of incubation at 37° C., at 5% CO2 in a humidified incubator, cells were picked up and processed for FACS analysis of TSCM induction.

## N#CC(=C(N)Sc1ccc(N)cc1)c1ccccc1C(F)(F)F [MEK1/2 inhibitor]
[1]; FIG. 1A
  numbers of CD4+ T cells in the tumor microenvironment (TME): increases
[1]; FIG. 1B
  induction of CD4+ T cells with a naive-like phenotype (CD62L+CD44-) in the TME: significantly enhanced
[2]
  generation of Sca1+ TNAIVE CD4+ T cells: significantly enhanced
